Reference: patent US20160108038A1, “BICYCLIC ARYL SULFIDE AND ARYL SULFOXIDE DERIVATIVES AS PEST CONTROL AGENT” (BAYER CROPSCIENCE AKTIENGESELLSCHAFT, priority 2013, published 2016)
Read-outs that look alike come from different tables or passages of the source.

Legend:
[1] = log P determination by HPLC on reversed-phase columns (C 18), analogous to OECD Guideline 117; type: physicochemical; settings: for chromatographic logP: reversed-phase C18 HPLC column
Method: The log P values were determined analogously to OECD Guideline 117 (EC Directive 92/69/EEC) by HPLC (high-performance liquid chromatography) using reversed-phase columns (C 18), by the following methods: [a] The LC-MS determination in the acidic range was effected at pH 2.7 with 0.1% aqueous formic acid and acetonitrile (contains 0.1% formic acid) as eluents; linear gradient from 10% acetonitrile to 95% acetonitrile. log P^[a] is also referred to as log P(HCOOH). [b] LC-MS determination in the neutral range was effected at pH 7.8 with 0.001 molar aqueous ammonium hydrogencarbonate solution and acetonitrile as eluents; linear gradient from 10% acetonitrile to 95% acetonitrile. log P^[…] is also referred to as log P(neutral).

Boophilus microplus = Boophilus microplus injection test; type: in vivo; settings: 20 μg/animal, injection into engorged adult female cattle ticks, after 7 days; 100% = no fertile eggs
Method: Boophilus microplus—Injection Test Solvent: dimethyl sulfoxide To produce a suitable preparation of active compound, 10 mg of active compound are mixed with 0.5 ml of solvent and the concentrate is diluted with solvent to the desired concentration. 1 μl of the active compound solution is injected into the abdomen of 5 engorged adult female cattle ticks (Boophilus microplus). The animals are transferred into dishes and kept in a climate-controlled room. Efficacy is assessed after 7 days by laying of fertile eggs. Eggs which are not visibly fertile are stored in a climate-controlled cabinet until the larvae hatch after about 42 days. An efficacy of 100% means that none of the ticks has laid any fertile eggs; 0% means that all the eggs are fertile.

Tetranychus urticae = Tetranychus urticae spray test, OP-resistant; type: in vivo; settings: 500 g/ha, bean leaf discs, after 6 days
Method: Tetranychus urticae—Spray Test, OP-Resistant
(§1) To produce a suitable preparation of active compound, 1 part by weight of active compound is dissolved using the stated parts by weight of solvent and made up with water containing an emulsifier concentration of 1000 ppm until the desired concentration is attained. To produce further test concentrations, the preparation is diluted with emulsifier-containing water.
Discs of bean leaves (Phaseolus vulgaris) infested with all stages of the greenhouse red spider mite (Tetranychus urticae) are sprayed with an active compound preparation of the desired concentration.
After 6 days, the efficacy in % is determined. 100% means that all the spider mites have been killed; 0% means that none of the spider mites have been killed.

Phaedon cochleariae = Phaedon cochleariae spray test; type: in vivo; settings: 500 g/ha, Chinese cabbage leaf discs, after 7 days
Method: Phaedon cochleariae—Spray Test
as §1
After 7 days, the efficacy in % is determined. 100% means that all the beetle larvae have been killed; 0% means that no beetle larvae have been killed.

Meloidogyne incognita = Meloidogyne incognita test; type: in vivo; settings: 20 ppm, lettuce, after 14 days; 100% = no galls
Method: Meloidogyne incognita Test Solvent: 125.0 parts by weight of acetone To produce a suitable preparation of active compound, 1 part by weight of active compound is mixed with the stated amount of solvent and the concentrate is diluted with water to the desired concentration. Vessels are filled with sand, active compound solution, an egg/larvae suspension of the southern root-knot nematode (Meloidogyne incognita) and lettuce seeds. The lettuce seeds germinate and the plants develop. The galls develop on the roots. After 14 days, the nematicidal efficacy in % is determined by the formation of galls. 100% means that no galls were found; 0% means that the number of galls on the treated plants corresponds to the untreated control.

[2] = acidic range, pH 2.7, 0.1% aqueous formic acid and acetonitrile
[3] = neutral range, pH 7.8, 0.001 molar aqueous ammonium hydrogencarbonate and acetonitrile
[4] = acidic range, pH 2.7, 0.1% aqueous formic acid and acetonitrile, read-out: logP(HCOOH)
[5] = neutral range, pH 7.8, 0.001 molar aqueous ammonium hydrogencarbonate and acetonitrile, read-out: logP(neutral)

| chromatographic logP [1, 4] | chromatographic logP [1, 5] | Compound | logP(HCOOH) [1, 2] | logP(neutral) [1, 3] | efficacy (laying of fertile eggs) (Boophilus microplus) [%] | efficacy (spider mites killed) (Tetranychus urticae) [%] | efficacy (beetle larvae killed) (Phaedon cochleariae) [%] | nematicidal efficacy (formation of galls) (Meloidogyne incognita) [%] |
| --- | --- | --- | --- | --- | --- | --- | --- | --- |
| – | – | Cc1cc(C)c([S+]([O-])CC(F)(F)F)cc1-n1cnc2ncccc2c1=O (stereo not drawn) [Compound 6] | 1.62 | 1.61 | 100 | 100 | – | – |
| – | – | Cc1cc(F)c(-n2cnc3cnccc3c2=O)cc1SCC(F)(F)F [Compound 12] | 2.55 | 2.56 | – | – | – | – |
| – | – | Cc1cc(F)c(-n2cnc3cccnc3c2=O)cc1[S+]([O-])CC(F)(F)F (stereo not drawn) [Compound 11] | 1.49 | 1.46 | – | 100 | 100 | – |
| – | – | O=c1c2cccnc2ncn1-c1cc([S+]([O-])CC(F)(F)F)c(Cl)cc1Cl (stereo not drawn) [Compound 7] | 1.98 | 1.84 | – | 90 | – | – |
| – | – | Cc1cc(C)c(-n2c(C)nc3ncccc3c2=O)cc1SCC(F)(F)F [Compound 16] | 2.63 | 2.60 | – | – | – | – |
| – | – | Cc1cc(Cl)c(-n2cnc3ncccc3c2=O)cc1[S+]([O-])CC(F)(F)F (stereo not drawn) [Compound 18] | 1.77 | 1.73 | – | 100 | – | – |
| – | – | Cc1cc(F)c(-n2cnc3cnccc3c2=O)cc1[S+]([O-])CC(F)(F)F (stereo not drawn) [Compound 13] | 1.60 | 1.63 | – | 100 | – | – |
| 1.56 | 1.56 | Cc1cc(F)c(-n2cnc3ncccc3c2=O)cc1[S+]([O-])CC(F)(F)F (stereo not drawn) [Compound 5, 3-{2-Fluoro-4-methyl-5-[(2,2,2-trifluoroethyl)sulfinyl]phenyl}pyrido[2,3-d]pyrimidin-4(3H)-one] | – | – | – | 90 | – | – |
| – | – | Cc1cc(C)c(-n2cnc3ncccc3c2=O)cc1SCC(F)(F)F [Compound 4] | 2.53 | 2.54 | – | 100 | – | – |
| – | – | Cc1cc(F)c(-n2cnc3ccncc3c2=O)cc1SCC(F)(F)F [Compound 1] | 2.54 | 2.56 | – | 100 | – | – |
| – | – | Cc1cc(Cl)c(-n2cnc3ncccc3c2=O)cc1SCC(F)(F)F [Compound 15] | 2.62 | 2.62 | – | – | – | – |
| 1.7 | 2.71 | Cc1cc(F)c(NC(=O)c2cccnc2N)cc1SCC(F)(F)F [2-Amino-N-{2-fluoro-4-methyl-5-[(2,2,2-trifluoroethyl)sulfanyl]phenyl}nicotinamide] | – | – | – | – | – | – |
| 2.55 | 2.52 | Cc1cc(F)c(-n2c(C)nc3ncccc3c2=O)cc1SCC(F)(F)F [Compound 8, 3-{2-Fluoro-4-methyl-5-[(2,2,2-trifluoroethyl)sulfanyl]phenyl}-2-mehtylpyrido[2,3-d]pyrimidin-4(3H)-one] | – | – | – | 100 | – | – |
| – | – | O=c1c2cccnc2ncn1-c1cc(SCC(F)(F)F)c(Cl)cc1Cl [Compound 3] | 2.73 | 2.68 | – | – | – | – |
| 1.66 | 1.64 | Cc1cc(F)c(-n2c(C)nc3ncccc3c2=O)cc1[S+]([O-])CC(F)(F)F (stereo not drawn) [Compound 10, 3-{2-Fluoro-4-methyl-5-[(2,2,2-trifluoroethyl)sulfinyl]phenyl}-2-mehtylpyrido[2,3-d]pyrimidin-4(3H)-one] | – | – | – | 100 | – | – |
| – | – | Cc1cc(F)c(-n2cnc3ccncc3c2=O)cc1[S+]([O-])CC(F)(F)F (stereo not drawn) [Compound 14] | 1.61 | 1.64 | 100 | 90 | – | – |
| 0.42 | 0.43 | Cc1nc2ncccc2c(=O)o1 [2-Methyl-4H-pyrido[2,3-d][1,3]oxazin-4-one] | – | – | – | – | – | – |
| – | – | Cc1cc(F)c(-n2cnc3cccnc3c2=O)cc1SCC(F)(F)F [Compound 9] | 2.33 | – | – | 100 | – | – |
| 2.43 | 2.43 | Cc1cc(F)c(-n2cnc3ncccc3c2=O)cc1SCC(F)(F)F [Compound 2, 3-{2-Fluoro-4-methyl-5-[(2,2,2-trifluoroethyl)sulfanyl]phenyl}-2-pyrido [2,3-d]pyrimidin-4(3H)-one] | – | – | – | 90 | – | – |
| – | – | Cc1cc(C)c([S+]([O-])CC(F)(F)F)cc1-n1c(C)nc2ncccc2c1=O (stereo not drawn) [Compound 17] | 1.67 | 1.67 | – | 90 | – | 90 |
